Source: patent EP1561465A2, “Methods of use of fluoroquinolone compounds against bacteria” (LG Life Sciences, Ltd., priority 1999, dated 2001)
≈ marks a conversion by molar mass, not a printed value. Where “and” joins values, the source holds several entries; their conditions need not be identical. Equal entries are not always repeated. Where two headings read alike, the source gives them in different places.

How the values were obtained:
Assay type in all cases: cell-based
Pseudomonas aeruginosa = assay: MIC by agar dilution (NCCLS), 322 nosocomial Gram negative isolates, Athens 1998; conditions: n = 57 isolates
Escherichia coli = assay: as above; conditions: Escherichia coli; n = 57 isolates
Klebsiella pneumoniae = assay: as above; conditions: n = 56 isolates; for MIC50 / MIC90: Klebsiella pneumoniae
Proteus mirabilis = assay: as above; conditions: n = 57 isolates; for MIC50 / MIC90: Proteus mirabilis
Acinetobacter spp. = assay: as above; conditions: n = 38 strains; for MIC50 / MIC90: Acinetobacter
[1] = tested on: Gram positive anaerobic and facultative anaerobic pathogens; assay: organism not typed
[2] = tested on: Gram negative anaerobic pathogens and facultative anaerobic pathogens; assay: MIC by agar dilution, Brucella HK agar with 5% laked sheep blood, anaerobic reference strains
Enterobacter spp. = assay: MIC by agar dilution (NCCLS), 322 nosocomial Gram negative isolates, Athens 1998; conditions: n = 57 isolates; for MIC50 / MIC90: Enterobacter; for MIC50: read-out: MIC50; for MIC90: read-out: MIC90

## CC(C)(O/N=C(\C(=O)N[C@@H]1C(=O)N2C(C(=O)[O-])=C(C[n+]3ccccc3)CS[C@H]12)c1csc(N)n1)C(=O)O [Ceftazidime]
Pseudomonas aeruginosa
  MIC50: 2 µg/mL (≈ 3.66 µM)
  MIC90: > 64 µg/mL
Escherichia coli
  MIC50: 0.125 µg/mL (≈ 0.229 µM)
  MIC90: 0.25 µg/mL (≈ 0.457 µM)
Klebsiella pneumoniae
  MIC50: 0.25 µg/mL (≈ 0.457 µM)
  MIC90: > 64 µg/mL
Proteus mirabilis
  MIC50: 0.125 µg/mL (≈ 0.229 µM)
  MIC90: 8 µg/mL (≈ 14.6 µM)
Acinetobacter spp.
  MIC50: > 64 µg/mL
  MIC90: > 64 µg/mL

## C[C@@H](O)[C@H]1C(=O)N2C(C(=O)O)=C(SCCN=CN)C[C@H]12 [Imipenem]
[1]
  MIC: 0.125 µg/mL and 0.25 µg/mL
[1]; Bifidobacterium adolescentis, ATCC15703
  MIC: 0.125 µg/mL (≈ 0.418 µM)
[1]; Bifidobacterium bifidum, JCM1255
  MIC: 0.125 µg/mL (≈ 0.418 µM)
[1]; Bifidobacterium breve, ATCC15700
  MIC: 1 µg/mL (≈ 3.34 µM)
[1]; Bifidobacterium longum, ATCC15707
  MIC: 0.25 µg/mL (≈ 0.835 µM)
[1]; Bifidobacterium pseudolongum, ATCC25526
  MIC: 0.25 µg/mL (≈ 0.835 µM)
[1]; Clostridioides difficile
  MIC: 4 µg/mL (≈ 13.4 µM)
[1]; Clostridium perfringens, ATCC13124
  MIC: 0.125 µg/mL (≈ 0.418 µM)
[1]; Clostridium septicum, ATCC12464
  MIC: ≤ 0.03 µg/mL
[1]; Cutibacterium acnes, ATCC11828
  MIC: 0.125 µg/mL (≈ 0.418 µM)
[1]; Eggerthella lenta, ATCC25559
  MIC: 2 µg/mL (≈ 6.68 µM)
[1]; Finegoldia magna, ATCC29328
  MIC: 0.25 µg/mL (≈ 0.835 µM)
[1]; Gemella morbillorum, ATCC27824
  MIC: ≤ 0.03 µg/mL
[1]; Lacticaseibacillus casei, JCM1134
  MIC: 0.5 µg/mL (≈ 1.67 µM)
[1]; Lactiplantibacillus plantarum, JCM1149
  MIC: 0.06 µg/mL (≈ 0.2 µM)
[1]; Lactobacillus acidophilus, JCM1132
  MIC: 0.125 µg/mL (≈ 0.418 µM)
[1]; Levilactobacillus brevis, JCM1059
  MIC: 0.06 µg/mL (≈ 0.2 µM)
[1]; Ligilactobacillus salivarius, JCM1231
  MIC: 0.5 µg/mL (≈ 1.67 µM)
[1]; Limosilactobacillus reuteri, JCM1112
  MIC: 0.06 µg/mL (≈ 0.2 µM)
[1]; Limosilactobacillus reuteri, JCM1173
  MIC: ≤ 0.03 µg/mL
[1]; Paraclostridium sordellii, ATCC9714
  MIC: ≤ 0.03 µg/mL
[1]; Parvimonas micra
  MIC: 0.125 µg/mL (≈ 0.418 µM)
[1]; Peptoniphilus asaccharolyticus
  MIC: 0.125 µg/mL (≈ 0.418 µM)
[1]; Peptoniphilus indolicus
  MIC: ≤ 0.03 µg/mL
[1]; Peptostreptococcus anaerobius, ATCC27337
  MIC: 0.06 µg/mL (≈ 0.2 µM)
[1]; Schaalia odontolytica
  MIC: 0.5 µg/mL (≈ 1.67 µM)
[1]; Staphylococcus saccharolyticus, ATCC14953
  MIC: ≤ 0.03 µg/mL
[1]; Streptococcus constellatus, ATCC27823
  MIC: 0.25 µg/mL (≈ 0.835 µM)
[1]; Streptococcus intermedius, ATCC27335
  MIC: 0.25 µg/mL (≈ 0.835 µM)
[1]; Thomasclavelia ramosa, ATCC25582
  MIC: 0.25 µg/mL (≈ 0.835 µM)
[2]; Bacteroides eggerthii, ATCC27754
  MIC: 0.125 µg/mL (≈ 0.418 µM)
[2]; Bacteroides fragilis, ATCC25285, Bacteroides fragilis ATCC25285, read-out: MIC
  MIC: 0.5 µg/mL (≈ 1.67 µM)
[2]; Bacteroides fragilis, Bacteroides fragilis GA15562, read-out: MIC
  MIC: 0.25 µg/mL (≈ 0.835 µM)
[2]; Bacteroides fragilis, Bacteroides fragilis GA-I0558, read-out: MIC
  MIC: 1 µg/mL (≈ 3.34 µM)
[2]; Bacteroides fragilis, Bacteroides fragilis GA-I7955, read-out: MIC
  MIC: 4 µg/mL (≈ 13.4 µM)
[2]; Bacteroides fragilis, Bacteroides fragilis GAI10150, read-out: MIC
  MIC: 2 µg/mL (≈ 6.68 µM)
[2]; Bacteroides fragilis, Bacteroides fragilis GAI30079, read-out: MIC
  MIC: 256 µg/mL (≈ 855 µM)
[2]; Bacteroides fragilis, Bacteroides fragilis GAI30144, read-out: MIC
  MIC: 256 µg/mL (≈ 855 µM)
[2]; Bacteroides fragilis, NCTC10581
  MIC: 0.125 µg/mL (≈ 0.418 µM)
[2]; Bacteroides ovatus, ATCC8483, Bacteroides ovatus ATCC8483, read-out: MIC
  MIC: 0.25 µg/mL (≈ 0.835 µM)
[2]; Bacteroides thetaiotaomicron, ATCC29741, Bacteroides thetaiotaomicron ATCC29741, read-out: MIC
  MIC: 0.5 µg/mL (≈ 1.67 µM)
[2]; Bacteroides uniformis, ATCC8492, Bacteroides uniformis ATCC8492, read-out: MIC
  MIC: 0.5 µg/mL (≈ 1.67 µM)
[2]; Bilophilla wadsworthia WAL7959, read-out: MIC
  MIC: 0.25 µg/mL (≈ 0.835 µM)
[2]; Campylobacter gracilis, JCM8538, Campylobacter gracilis JCM8538, read-out: MIC
  MIC: 0.25 µg/mL (≈ 0.835 µM)
[2]; Campylobacter ureolyticus, NCTC10941, Bacteroides ureolyticus NCTC10941, read-out: MIC
  MIC: 0.25 µg/mL (≈ 0.835 µM)
[2]; Capnocytophaga ochracea, Capnocytophaga ochracea GAI5586, read-out: MIC
  MIC: 0.25 µg/mL (≈ 0.835 µM)
[2]; Desullomonas pigra DSM749, read-out: MIC
  MIC: 0.06 µg/mL (≈ 0.2 µM)
[2]; Fusobacterium necrophorum, ATCC25286
  MIC: 0.125 µg/mL (≈ 0.418 µM)
[2]; Fusobacterium nucleatum, ATCC25586, Fusobacterium nucleatum ATCC25586, read-out: MIC
  MIC: 1 µg/mL (≈ 3.34 µM)
[2]; Fusobacterium varium, ATCC8501, Fusobacterium varium ATCC8501, read-out: MIC
  MIC: 4 µg/mL (≈ 13.4 µM)
[2]; Hoylesella oralis, ATCC33269, Prevotella oralis ATCC33269, read-out: MIC
  MIC: ≤ 0.03 µg/mL
[2]; Parabacteroides distasonis, ATCC8503, Bacteroides distasonis ATCC8503, read-out: MIC
  MIC: 1 µg/mL (≈ 3.34 µM)
[2]; Phocaeicola vulgatus, ATCC8482, Bacteroides vulgatus ATCC8482, read-out: MIC
  MIC: 1 µg/mL (≈ 3.34 µM)
[2]; Porphylomonas gingivalis ATCC33277, read-out: MIC
  MIC: ≤ 0.03 µg/mL
[2]; Porphyromonas asaccharolytica, ATCC25260, Porphyromonas asaccharolytica ATCC25260, read-out: MIC
  MIC: ≤ 0.03 µg/mL
[2]; Prevotella bivia, ATCC29303, Prevotella bivia ATCC29303, read-out: MIC
  MIC: 0.06 µg/mL (≈ 0.2 µM)
[2]; Prevotella buccaeATCC33574, read-out: MIC
  MIC: 0.25 µg/mL (≈ 0.835 µM)
[2]; Prevotella corporis, Prevotella corporis GAI91000, read-out: MIC
  MIC: ≤ 0.03 µg/mL
[2]; Prevotella heparinolytica, ATCC35895
  MIC: 0.125 µg/mL (≈ 0.418 µM)
[2]; Prevotella melaninogenica, Prevotella melaninogenica GAI5490, read-out: MIC
  MIC: ≤ 0.03 µg/mL
[2]; Segatella oris, ATCC33573, Prevotella oris ATCC33573, read-out: MIC
  MIC: 0.06 µg/mL (≈ 0.2 µM)
[2]; Sutterella wadsworthensis, ATCC51579, Sutterella wadsworthensis ATCC51579, read-out: MIC
  MIC: 2 µg/mL (≈ 6.68 µM)
[2]; Veillonella dispar, ATCC17748, Veillonella dispar ATCC17748, read-out: MIC
  MIC: 0.06 µg/mL (≈ 0.2 µM)
[2]; Veillonella parvula, ATCC10790
  MIC: 0.125 µg/mL (≈ 0.418 µM)
Pseudomonas aeruginosa
  MIC50: 2 µg/mL (≈ 6.68 µM)
  MIC90: 32 µg/mL (≈ 107 µM)
Klebsiella pneumoniae
  MIC50: 0.25 µg/mL (≈ 0.835 µM)
  MIC90: 1 µg/mL (≈ 3.34 µM)
  MIC Range: 0.125 to 4 µg/mL
Proteus mirabilis
  MIC50: 2 µg/mL (≈ 6.68 µM)
  MIC90: 4 µg/mL (≈ 13.4 µM)
  MIC Range: 0.125 to 16 µg/mL
Enterobacter spp.
  MIC50: 1 µg/mL (≈ 3.34 µM)
  MIC90: 2 µg/mL (≈ 6.68 µM)
  MIC Range: 0.25 to 64 µg/mL
Acinetobacter spp.
  MIC50: 1 µg/mL (≈ 3.34 µM)
  MIC90: 4 µg/mL (≈ 13.4 µM)
  MIC Range: 0.06 to 16 µg/mL

## C[C@@H](O)[C@H]1C(=O)N2C(C(=O)O)=C(S[C@@H]3CN[C@H](C(=O)N(C)C)C3)[C@H](C)[C@H]12 [Meropenem]
Pseudomonas aeruginosa
  MIC50: 1 µg/mL (≈ 2.61 µM)
  MIC90: 16 µg/mL (≈ 41.7 µM)
Escherichia coli
  MIC50: ≤ 0.03 µg/mL
  MIC90: ≤ 0.03 µg/mL
Klebsiella pneumoniae
  MIC50: 0.03 µg/mL (≈ 0.0782 µM)
  MIC90: 0.06 µg/mL (≈ 0.156 µM)
  MIC Range: ≤0.03 to 2 µg/mL
Proteus mirabilis
  MIC50: 0.03 µg/mL (≈ 0.0782 µM)
  MIC90: 0.25 µg/mL (≈ 0.652 µM)
  MIC Range: ≤0.03 to 4 µg/mL
Enterobacter spp.
  MIC50: 0.06 µg/mL (≈ 0.156 µM)
  MIC90: 4 µg/mL (≈ 10.4 µM)
  MIC Range: ≤0.03 to 16 µg/mL
Acinetobacter spp.
  MIC50: 2 µg/mL (≈ 5.22 µM)
  MIC90: 8 µg/mL (≈ 20.9 µM)
  MIC Range: 0.06 to 16 µg/mL

## CCN1CCN(C(=O)N[C@@H](C(=O)N[C@@H]2C(=O)N3[C@@H]2SC(C)(C)[C@@H]3C(=O)O)c2ccccc2)C(=O)C1=O [Piperacillin]
Pseudomonas aeruginosa
  MIC50: 8 µg/mL (≈ 15.5 µM)
  MIC90: > 64 µg/mL
Escherichia coli
  MIC50: 4 µg/mL (≈ 7.73 µM)
  MIC90: 64 µg/mL (≈ 124 µM)
Klebsiella pneumoniae
  MIC50: 32 µg/mL (≈ 61.8 µM)
  MIC90: > 64 µg/mL
Proteus mirabilis
  MIC50: 1 µg/mL (≈ 1.93 µM)
  MIC90: > 64 µg/mL
Enterobacter spp.
  MIC50: 16 µg/mL (≈ 30.9 µM)
  MIC90: > 64 µg/mL
Acinetobacter spp.
  MIC50: > 64 µg/mL
  MIC90: > 64 µg/mL
